In article PMC5599477, “Comparative stability of Major Facilitator Superfamily transport proteins” (European Biophysics Journal, 2017):

How the values were obtained:
GlpT = biological target: T1, GlpT (Escherichia coli, UniProt P08194); test: far-UV circular dichroism at […] nm, urea denaturation with ligand; format: binding; settings: 50 uM ligand; 0.01 mg/ml protein; detergent-solubilised; 50 mM Tris-HCl pH 7.4; chemical denaturation onset, not an affinity
T1 construct: 10-His tag (modified pET28a), expressed in E. coli BL21-AI, purified, detergent-solubilised (LacY-WT procedure, Tris-HCl pH 7.4)
T1 sequence (P08194 1-452): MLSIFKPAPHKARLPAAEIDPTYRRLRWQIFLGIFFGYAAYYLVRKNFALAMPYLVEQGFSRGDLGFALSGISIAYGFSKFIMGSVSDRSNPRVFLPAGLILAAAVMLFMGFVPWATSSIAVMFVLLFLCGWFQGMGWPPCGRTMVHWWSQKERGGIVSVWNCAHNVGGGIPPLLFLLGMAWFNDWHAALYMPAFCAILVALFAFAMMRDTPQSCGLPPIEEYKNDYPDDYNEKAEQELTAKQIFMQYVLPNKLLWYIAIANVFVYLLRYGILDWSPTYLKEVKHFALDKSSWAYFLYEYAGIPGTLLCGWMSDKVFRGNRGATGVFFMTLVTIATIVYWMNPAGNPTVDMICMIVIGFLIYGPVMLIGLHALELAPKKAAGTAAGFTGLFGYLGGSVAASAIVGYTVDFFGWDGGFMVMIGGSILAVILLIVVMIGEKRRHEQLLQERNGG

XylE = biological target: T2, XylE (Escherichia coli, UniProt P0AGF4); test: far-UV circular dichroism at […] nm, GuHCl denaturation with ligand; format: binding; settings: 1 mM ligand; 0.35 mg/ml protein; detergent-solubilised; chemical denaturation onset, not an affinity; D/L form not given
T2 construct: 10-His tag (modified pET28a), expressed in E. coli BL21-AI, purified, detergent-solubilised (LacY-WT procedure)
T2 sequence (P0AGF4 1-491): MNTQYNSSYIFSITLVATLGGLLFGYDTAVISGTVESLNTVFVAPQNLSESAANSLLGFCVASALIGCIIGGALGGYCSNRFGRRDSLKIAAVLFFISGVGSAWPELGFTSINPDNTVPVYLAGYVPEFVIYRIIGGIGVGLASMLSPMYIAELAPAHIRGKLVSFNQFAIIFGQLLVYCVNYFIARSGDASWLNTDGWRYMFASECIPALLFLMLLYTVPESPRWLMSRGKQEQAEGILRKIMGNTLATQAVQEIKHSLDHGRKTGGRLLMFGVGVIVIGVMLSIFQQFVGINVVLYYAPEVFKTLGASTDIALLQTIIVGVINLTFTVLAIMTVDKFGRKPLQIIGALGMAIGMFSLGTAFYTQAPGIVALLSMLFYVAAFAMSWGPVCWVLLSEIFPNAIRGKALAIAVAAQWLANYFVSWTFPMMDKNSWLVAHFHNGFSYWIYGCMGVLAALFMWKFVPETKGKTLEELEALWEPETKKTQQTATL

Question: Cc1ncc(COP(=O)(O)O)c(C=O)c1O [pyridoxal-5-phosphate] was tested. Which “Effect of ligand on stability” value (GlpT) did it give?
Answer: The value was greater than 6 M urea.

Question: For OC1OC[C@@H](O)[C@H](O)[C@H]1O (some centres unmarked) [xylose], which “Concentration of GuHCl required for unfolding (M)” value (XylE) is on record?
Answer: Its value is greater than 5 M GuHCl.
